Laboratory results reported in ChEMBL document CHEMBL3991601, “The target landscape of clinical kinase drugs” (Science, 2017).
Active and inactive are the calls of the source. For most assays here, no stated cut-off is given here; in the data, actives have a measured Kd and inactives only a lower limit.

Assays:
[1] = molecular target: T1, Glycogen phosphorylase, liver form (Homo sapiens, UniProt P06737); assay type: subcellular, K-562, COLO 205, SK-N-BE(2) and MV-4-11, Cell lysate; conditions: read-out: Kd apparent
T1 sequence (P06737 whole entry): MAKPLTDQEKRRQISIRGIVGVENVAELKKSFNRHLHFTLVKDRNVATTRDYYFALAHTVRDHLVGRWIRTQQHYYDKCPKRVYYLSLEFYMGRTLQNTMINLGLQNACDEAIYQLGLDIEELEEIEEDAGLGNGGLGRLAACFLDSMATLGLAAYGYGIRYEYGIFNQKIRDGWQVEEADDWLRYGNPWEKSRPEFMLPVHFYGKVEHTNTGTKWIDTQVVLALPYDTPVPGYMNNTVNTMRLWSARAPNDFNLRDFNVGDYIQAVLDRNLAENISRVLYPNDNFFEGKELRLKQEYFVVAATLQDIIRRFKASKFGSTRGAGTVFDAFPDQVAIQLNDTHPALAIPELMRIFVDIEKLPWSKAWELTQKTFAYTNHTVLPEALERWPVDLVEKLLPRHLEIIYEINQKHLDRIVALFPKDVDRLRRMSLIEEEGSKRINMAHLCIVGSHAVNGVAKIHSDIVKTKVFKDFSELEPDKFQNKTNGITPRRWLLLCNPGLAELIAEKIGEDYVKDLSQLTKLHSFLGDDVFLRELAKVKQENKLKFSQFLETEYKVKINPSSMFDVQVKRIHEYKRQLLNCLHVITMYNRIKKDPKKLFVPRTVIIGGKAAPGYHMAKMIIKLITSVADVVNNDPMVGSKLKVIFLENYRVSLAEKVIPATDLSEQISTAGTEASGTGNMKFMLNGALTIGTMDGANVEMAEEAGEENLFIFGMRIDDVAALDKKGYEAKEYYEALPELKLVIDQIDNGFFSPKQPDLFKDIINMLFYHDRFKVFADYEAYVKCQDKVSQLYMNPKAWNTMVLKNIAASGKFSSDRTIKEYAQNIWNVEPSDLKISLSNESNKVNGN

[2] = molecular target: T2, NUAK family SNF1-like kinase 2 (Homo sapiens, UniProt Q9H093)
T2 sequence (Q9H093 whole entry): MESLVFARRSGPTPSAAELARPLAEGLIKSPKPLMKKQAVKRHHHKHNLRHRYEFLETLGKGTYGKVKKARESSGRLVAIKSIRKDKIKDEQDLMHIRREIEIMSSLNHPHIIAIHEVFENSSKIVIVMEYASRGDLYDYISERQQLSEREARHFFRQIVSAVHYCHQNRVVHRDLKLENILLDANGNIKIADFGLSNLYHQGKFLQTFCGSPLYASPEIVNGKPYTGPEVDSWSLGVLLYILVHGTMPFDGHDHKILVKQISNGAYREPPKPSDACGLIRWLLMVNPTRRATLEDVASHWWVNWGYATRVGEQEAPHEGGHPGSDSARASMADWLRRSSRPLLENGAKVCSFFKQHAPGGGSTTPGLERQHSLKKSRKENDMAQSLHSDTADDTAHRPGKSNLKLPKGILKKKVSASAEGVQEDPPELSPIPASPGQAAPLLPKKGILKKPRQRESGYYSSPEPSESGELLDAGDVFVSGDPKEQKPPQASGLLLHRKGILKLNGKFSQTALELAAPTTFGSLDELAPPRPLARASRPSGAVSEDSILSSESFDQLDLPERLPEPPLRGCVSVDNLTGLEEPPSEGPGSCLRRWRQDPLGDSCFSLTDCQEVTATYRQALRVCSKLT

[3] = molecular target: T3, Phosphorylase b kinase gamma catalytic chain, liver/testis isoform (Homo sapiens, UniProt P15735)
T3 sequence (P15735 whole entry): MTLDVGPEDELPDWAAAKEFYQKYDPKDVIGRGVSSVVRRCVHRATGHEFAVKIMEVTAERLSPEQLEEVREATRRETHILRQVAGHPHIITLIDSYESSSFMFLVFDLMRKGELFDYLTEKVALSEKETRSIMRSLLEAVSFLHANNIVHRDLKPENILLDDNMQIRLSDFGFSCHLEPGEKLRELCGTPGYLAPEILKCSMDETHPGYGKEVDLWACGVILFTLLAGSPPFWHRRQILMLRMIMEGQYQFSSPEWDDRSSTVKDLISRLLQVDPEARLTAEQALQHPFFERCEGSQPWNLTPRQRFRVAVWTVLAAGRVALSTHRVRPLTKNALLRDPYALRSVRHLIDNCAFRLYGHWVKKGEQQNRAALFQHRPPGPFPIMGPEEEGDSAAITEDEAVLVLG

[4] = molecular target: T4, Serine/threonine-protein kinase D2 (Homo sapiens, UniProt Q9BZL6)
T4 sequence (Q9BZL6 whole entry): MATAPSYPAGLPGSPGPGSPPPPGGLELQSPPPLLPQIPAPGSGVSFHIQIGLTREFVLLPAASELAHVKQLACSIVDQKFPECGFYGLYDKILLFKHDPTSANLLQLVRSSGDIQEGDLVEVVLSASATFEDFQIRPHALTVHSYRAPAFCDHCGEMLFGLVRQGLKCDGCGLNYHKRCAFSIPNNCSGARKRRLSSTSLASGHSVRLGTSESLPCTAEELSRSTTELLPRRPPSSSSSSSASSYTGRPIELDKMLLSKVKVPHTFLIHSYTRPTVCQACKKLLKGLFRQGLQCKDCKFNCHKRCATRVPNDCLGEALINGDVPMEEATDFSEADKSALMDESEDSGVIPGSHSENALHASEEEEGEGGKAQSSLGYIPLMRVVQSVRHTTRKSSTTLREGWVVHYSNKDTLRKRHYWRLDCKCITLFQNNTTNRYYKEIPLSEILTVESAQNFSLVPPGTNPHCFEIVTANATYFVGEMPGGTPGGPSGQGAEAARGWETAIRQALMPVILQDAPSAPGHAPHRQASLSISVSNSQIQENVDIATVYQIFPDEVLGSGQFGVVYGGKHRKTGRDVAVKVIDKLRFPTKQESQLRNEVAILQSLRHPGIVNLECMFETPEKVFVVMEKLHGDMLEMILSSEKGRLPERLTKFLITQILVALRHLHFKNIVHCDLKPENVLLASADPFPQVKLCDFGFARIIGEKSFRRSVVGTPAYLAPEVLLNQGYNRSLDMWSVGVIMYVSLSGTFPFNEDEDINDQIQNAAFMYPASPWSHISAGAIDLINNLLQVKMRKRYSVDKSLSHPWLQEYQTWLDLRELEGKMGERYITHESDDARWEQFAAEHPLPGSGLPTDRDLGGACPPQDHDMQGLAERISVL

[5] = molecular target: Focal adhesion kinase 1 (Homo sapiens, UniProt Q05397)
Chain of Focal adhesion kinase 1 (Q05397 whole entry): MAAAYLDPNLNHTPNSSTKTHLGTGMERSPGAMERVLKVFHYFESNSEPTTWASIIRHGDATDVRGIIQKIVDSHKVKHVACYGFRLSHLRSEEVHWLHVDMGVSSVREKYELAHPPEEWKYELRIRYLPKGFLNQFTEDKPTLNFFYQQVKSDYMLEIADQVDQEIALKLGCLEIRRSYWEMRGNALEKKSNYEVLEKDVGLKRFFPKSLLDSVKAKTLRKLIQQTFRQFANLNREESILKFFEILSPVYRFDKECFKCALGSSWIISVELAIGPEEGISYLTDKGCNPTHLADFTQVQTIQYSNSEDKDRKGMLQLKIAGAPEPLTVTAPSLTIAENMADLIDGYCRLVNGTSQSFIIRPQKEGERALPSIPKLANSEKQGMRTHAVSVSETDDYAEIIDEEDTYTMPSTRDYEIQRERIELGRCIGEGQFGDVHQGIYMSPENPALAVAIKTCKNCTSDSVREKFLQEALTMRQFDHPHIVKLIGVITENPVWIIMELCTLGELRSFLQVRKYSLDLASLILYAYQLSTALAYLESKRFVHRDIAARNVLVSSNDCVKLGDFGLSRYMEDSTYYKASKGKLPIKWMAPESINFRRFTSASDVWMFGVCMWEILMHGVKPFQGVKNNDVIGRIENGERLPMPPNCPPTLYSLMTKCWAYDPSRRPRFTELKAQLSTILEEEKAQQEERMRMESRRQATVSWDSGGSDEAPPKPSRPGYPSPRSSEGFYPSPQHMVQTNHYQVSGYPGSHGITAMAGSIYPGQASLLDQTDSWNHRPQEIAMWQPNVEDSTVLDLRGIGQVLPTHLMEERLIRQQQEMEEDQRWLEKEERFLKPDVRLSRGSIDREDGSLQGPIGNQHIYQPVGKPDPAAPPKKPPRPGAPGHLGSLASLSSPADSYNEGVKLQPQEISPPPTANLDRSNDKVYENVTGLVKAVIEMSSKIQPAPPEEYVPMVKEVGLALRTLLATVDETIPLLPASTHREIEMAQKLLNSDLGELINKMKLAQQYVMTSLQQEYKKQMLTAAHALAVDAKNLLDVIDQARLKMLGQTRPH

[6] = molecular target: Serine/threonine-protein kinase 16 (Homo sapiens, UniProt O75716)
Chain of Serine/threonine-protein kinase 16 (O75716 whole entry): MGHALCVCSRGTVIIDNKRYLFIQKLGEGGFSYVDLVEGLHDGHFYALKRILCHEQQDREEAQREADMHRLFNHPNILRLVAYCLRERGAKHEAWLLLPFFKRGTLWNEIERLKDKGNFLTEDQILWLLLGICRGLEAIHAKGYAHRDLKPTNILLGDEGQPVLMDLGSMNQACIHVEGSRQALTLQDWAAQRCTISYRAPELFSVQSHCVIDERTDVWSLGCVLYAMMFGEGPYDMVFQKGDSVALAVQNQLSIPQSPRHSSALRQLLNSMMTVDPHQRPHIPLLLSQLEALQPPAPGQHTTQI

[7] = molecular target: Wee1-like protein kinase (Homo sapiens, UniProt P30291)
Chain of Wee1-like protein kinase (P30291 whole entry): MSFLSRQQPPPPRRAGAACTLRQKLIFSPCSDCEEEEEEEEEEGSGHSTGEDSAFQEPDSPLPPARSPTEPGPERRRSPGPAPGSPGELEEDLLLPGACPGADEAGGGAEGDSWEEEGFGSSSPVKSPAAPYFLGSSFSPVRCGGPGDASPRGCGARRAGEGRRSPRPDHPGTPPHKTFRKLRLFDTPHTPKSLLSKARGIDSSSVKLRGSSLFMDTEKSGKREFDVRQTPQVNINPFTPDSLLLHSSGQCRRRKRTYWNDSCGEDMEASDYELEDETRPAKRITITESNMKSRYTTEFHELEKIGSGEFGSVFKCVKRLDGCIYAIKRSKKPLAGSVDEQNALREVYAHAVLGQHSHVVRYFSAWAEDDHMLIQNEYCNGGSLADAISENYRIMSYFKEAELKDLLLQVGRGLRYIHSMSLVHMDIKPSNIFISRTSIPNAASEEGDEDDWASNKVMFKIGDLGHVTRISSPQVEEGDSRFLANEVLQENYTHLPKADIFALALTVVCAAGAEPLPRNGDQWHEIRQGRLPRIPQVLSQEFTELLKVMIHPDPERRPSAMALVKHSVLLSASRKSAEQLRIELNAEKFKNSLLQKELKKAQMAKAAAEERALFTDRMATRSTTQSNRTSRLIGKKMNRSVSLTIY

| Kd [1] | Kd [2] | Kd [3] | Kd [4] | Kd [5] | Kd [6] | Kd [7] | Structure (SMILES) |
| --- | --- | --- | --- | --- | --- | --- | --- |
| > 30 µM (inactive) | > 30 µM (inactive) | > 30 µM (inactive) | > 30 µM (inactive) | > 30 µM (inactive) | > 30 µM (inactive) | > 30 µM (inactive) | CCCS(=O)(=O)Nc1ccc(F)c(C(=O)c2c[nH]c3ncc(-c4ccc(Cl)cc4)cc23)c1F [VEMURAFENIB] |
| > 30 µM (inactive) | > 30 µM (inactive) | > 30 µM (inactive) | > 30 µM (inactive) | 0.601 µM (active) | > 30 µM (inactive) | > 30 µM (inactive) | CC[C@@H]1C(=O)N(C)c2cnc(Nc3ccc(C(=O)N[C@H]4CC[C@H](N5CCN(CC6CC6)CC5)CC4)cc3OC)nc2N1C(C)C [VOLASERTIB] |
| > 30 µM (inactive) | > 30 µM (inactive) | > 30 µM (inactive) | > 30 µM (inactive) | > 30 µM (inactive) | > 30 µM (inactive) | > 30 µM (inactive) | CCn1c(=O)c(-c2cc[nH]n2)cc2c(C)nc(N)nc21 [VOXTALISIB] |
| > 30 µM (inactive) | > 30 µM (inactive) | > 30 µM (inactive) | 66.9 µM (active) | > 30 µM (inactive) | > 30 µM (inactive) | > 30 µM (inactive) | O=C(Nc1ccc(-c2ccnc(Nc3ccc(N4CCOCC4)cc3)n2)cc1)C1CCCN1 (stereo not drawn) [XL-019] |
